Experimental data as given in patent US12378252B2, “Pyrrolopyrazole derivatives, preparation method thereof and application thereof in medicine” (SHANGHAI MEDICILON INC., priority 2019, dated 2025).
Structures can show the parent of a compound that is named as a salt.

target: T1, H+/K+ ATPase (Oryctolagus cuniculus, UniProt P27112); assay: determination of compounds' inhibition of H+/K+ ATPase enzyme activity (malachite green, OD 620 nm); format: biochemical; conditions: enzyme extracted from rabbit stomach tissue; pH 6.5; ATP 500 μM; 37° C.
T1 construct: The stomach tissue of the rabbit was separated; from tissue; host or cells: rabbit stomach (fundus) mucosa, membrane fraction obtained by differential and Ficoll centrifugation
T1 sequence (P27112 whole entry): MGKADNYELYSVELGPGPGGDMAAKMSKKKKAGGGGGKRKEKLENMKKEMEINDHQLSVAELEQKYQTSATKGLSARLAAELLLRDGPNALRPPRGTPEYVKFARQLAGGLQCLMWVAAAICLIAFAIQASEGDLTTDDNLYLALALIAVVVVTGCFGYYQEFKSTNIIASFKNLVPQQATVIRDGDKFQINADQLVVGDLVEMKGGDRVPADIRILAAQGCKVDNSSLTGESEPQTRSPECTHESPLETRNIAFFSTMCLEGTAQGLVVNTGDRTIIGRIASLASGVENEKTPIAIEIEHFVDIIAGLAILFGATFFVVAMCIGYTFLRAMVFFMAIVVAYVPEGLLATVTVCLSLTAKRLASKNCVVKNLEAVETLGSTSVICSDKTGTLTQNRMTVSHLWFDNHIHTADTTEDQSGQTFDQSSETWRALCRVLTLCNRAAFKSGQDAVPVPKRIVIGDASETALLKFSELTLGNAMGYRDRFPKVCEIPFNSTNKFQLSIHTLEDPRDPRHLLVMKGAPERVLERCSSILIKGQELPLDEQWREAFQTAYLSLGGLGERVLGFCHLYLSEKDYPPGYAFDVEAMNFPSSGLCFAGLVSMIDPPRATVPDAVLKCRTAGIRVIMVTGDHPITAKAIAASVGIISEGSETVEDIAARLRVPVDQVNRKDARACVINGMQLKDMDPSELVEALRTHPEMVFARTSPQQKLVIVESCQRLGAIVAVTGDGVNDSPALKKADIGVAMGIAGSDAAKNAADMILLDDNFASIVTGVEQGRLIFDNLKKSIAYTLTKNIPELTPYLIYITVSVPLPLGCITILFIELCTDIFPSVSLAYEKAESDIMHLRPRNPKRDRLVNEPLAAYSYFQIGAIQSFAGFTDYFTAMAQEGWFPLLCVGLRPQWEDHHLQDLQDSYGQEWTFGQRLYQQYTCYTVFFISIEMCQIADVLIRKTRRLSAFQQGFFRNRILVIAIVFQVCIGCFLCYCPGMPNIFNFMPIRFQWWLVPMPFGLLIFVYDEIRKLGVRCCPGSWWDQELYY
T1 sequence (P18597 whole entry partner): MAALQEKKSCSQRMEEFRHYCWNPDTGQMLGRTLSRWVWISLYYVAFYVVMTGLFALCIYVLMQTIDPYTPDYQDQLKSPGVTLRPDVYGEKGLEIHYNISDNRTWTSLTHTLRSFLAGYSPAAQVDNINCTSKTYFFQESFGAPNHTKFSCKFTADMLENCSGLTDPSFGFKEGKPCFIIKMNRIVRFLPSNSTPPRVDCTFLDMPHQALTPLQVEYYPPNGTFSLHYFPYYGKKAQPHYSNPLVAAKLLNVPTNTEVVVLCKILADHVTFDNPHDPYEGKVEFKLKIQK
From the text: Test example: determination of compounds' inhibition of H^+/K+ATPase enzyme activity
The following experiment is used to determine the inhibitory effect of the compound of the present invention on the H^+/K+ATPase enzyme activity.
1. Experimental materials
Plate reader: SpectraMax M5 (MD)
Malachite Green (Sigma Aldrich, 213020-25G)
Ammonium molybdate (Sigma Aldrich, 277908-20G)
ATP (Sigma Aldrich, A1852-1VL).
Enzyme working solution: titrating the enzyme, diluting the enzyme with buffer 1, and during the reaction, taking 5 μl of the diluted solution into 50 μl reaction system.
ATP solution: 100 mM ATP was diluted to 5 mM with no K+buffer, and 5 μl of the diluted solution was added to the 50 μl reaction system, that is, the final concentration of ATP was 500 μM.
MLG color development liquid: 0.12% MLG, 7.5% ammonium molybdate, and […] Tween-20 was mixed as 100:25:2, and adding 15 μl of the mixture into each well during detection.
Buffer 1: 50 mM Tris-HCl pH 6.5, 5 mM magnesium chloride (magnesium chloride), 10 μM valinomycin (valinomycin).
Buffer 2: 50 mM Tris-HCl pH 6.5, 5 mM magnesium chloride (magnesium chloride), 10 μM valinomycin (valinomycin), 20 mM KCl.
Homogenization buffer: 10 mmol/L Tris-HCl, pH 6.8, 0.25M sucrose (sucrose), 1 mmol/LEDTA. 7.5% Ficoll layering solution: homogenization buffer+7.5% (W/W) 400 (Ficoll 400).
3.1. H^+/K^+ ATPase enzyme extraction
(1) The stomach tissue of the rabbit was separated, and the blood was washed with tap water, food residue.
(2) The fundus portion was thoroughly washed with pre-cooled NaCl solution to remove surface mucus.
(3) The stripped mucosa was filled into a sample bag or a 50 ml centrifuge tube, and quickly freezing in a liquid nitrogen tank.
(4) The tissue was removed, minced with surgical scissors, and a pre-cooled homogenization buffer (4 ml/g tissue) was added and homogenized in a tissue homogenizer for 2 to 10 minutes.
(5) After homogenization, if there were larger tissue particles, they could be removed by centrifugation (600 g, 10 min), and then the supernatant was transferred to a clean centrifuge tube. After centrifugation at 20000 g for 30 minutes, then the supernatant was transferred to a clean centrifuge tube at 100000 g for 90 minutes and the precipitate was collected.
(6) Resuspending the precipitate with homogenization buffer, blowing uniformly, adding 7.5% Ficoll layering solution at equal ratio, centrifuging at 100000 g for 90 minutes, and collecting the precipitate.
(7) Resuspending the precipitate with homogenization buffer, blowing uniformly, and the protein concentration was measured by Bradford. Freezing in tubes at −80° C. for later use.
3.2. H^+/K^+ ATPase activity experiment
(1) Adding 35 μl of reaction buffer to each experimental well, and then added 35 μl of buffer 1.
(2) Adding 5 μl buffer 1 containing 10% DMSO to the whole enzyme and buffer well.
(3) Adding 5 μl of 10× compound working solution to the compound well and mixing well.
(4) Adding 5 of buffer 1 to the buffer well.
(5) Adding 5 μl of 10× enzyme working solution to the remaining wells, mixing and incubating at 37° C. for 30 minutes.
(6) Adding 5 μl of 10XATP working solution to all experimental wells, and incubating at 37° C. for 20 min.
(7) Adding 15 μl MLG chromogenic solution to all experimental wells, and uniformly mixing and incubating at room temperature for 5-30 min.
(8) The reading number of 620 nm was detected by an M5 instrument.
The inhibition rate is calculated with the following formula: Inhibition rate (IC50)=[OD (sample well)−OD (full enzyme well containing potassium chloride)]/[(OD (full enzyme well containing potassium chloride)−(OD (full enzyme well without potassium chloride Enzyme hole)]×100%

| Structure (SMILES) | IC50 |
| --- | --- |
| COC(=O)c1cccc(Cn2nc3c(c2-c2ccccc2F)CN(C)C3)c1 [Example 1, 3-((3-(2-fluorophenyl)-5-methyl-5,6-dihydropyrrolo[3,4-c]pyrazole-2(4H)-yl)methyl)benzoic acid ester] | 0.0776 µM |
| CCCCOC(=O)c1cccc(Cn2nc3c(c2-c2ccccc2F)CN(C)C3)c1 [Example 2, 3-((3-(2-fluorophenyl)-5-methyl-5,6-dihydropyrrolo [3,4-c]pyrazole-2(4H)-yl)methyl)butyl benzoate] | 0.0968 µM |
| CCOC(=O)c1cccc(Cn2nc3c(c2-c2ccccc2F)CN(C)C3)c1 [Example 3, 3-((3-(2-fluorophenyl)-5-methyl-5,6-dihydropyrrolo[3,4-c]pyrazole-2(4H)-yl)methyl) ethyl benzoate] | 0.0904 µM |
| CN1Cc2nn(Cc3cccc(C(=O)NC4CC4)c3)c(-c3ccccc3F)c2C1 [Example 4, N-cyclopropyl-3-((3-(2-fluorophenyl)-5-methyl-5,6-dihydropyrrolo[3,4-c]pyrazole-2(4H)-Yl)methyl)benzamide] | 0.539 µM |
| CN1Cc2nn(Cc3cccc(C(=O)OC(C)(C)C(N)=O)c3)c(-c3ccccc3F)c2C1 [Example 5, 1-amino-2-methyl-1-oxopropan-2-yl-3-((3-(2-fluorophenyl)-5-methyl-5,6-dihydropyrrolo [3,4-c]pyrazole-2(4H)-yl)methyl)benzoate] | 0.225 µM |
| COC(=O)c1cccc(Cn2nc3c(c2-c2ccccc2C)CN(C)C3)c1 [Example 6, 3-((5-methyl-3-(o-tolyl)-5,6-dihydropyrrolo[3,4-c]pyrazole-2(4H)-yl)methyl) Methyl benzoate] | 0.0366 µM |
| COC(=O)c1cc(Cn2nc3c(c2-c2ccccc2C)CN(C)C3)ccc1F [Example 7, 2-Fluoro-5-((5-methyl-3-(o-tolyl)-5,6-dihydropyrrole [3,4-c]pyrazole-2 (4H)-yl)methane Yl) methyl benzoate] | 0.039 µM |
| Cc1ccccc1-c1c2c(nn1Cc1cccc(C(=O)OC(C)(C)C)c1)CN(C)C2 [Example 8, 3-((5-Methyl-3-(o-tolyl)-5,6-dihydropyrrolo[3,4-c]pyrazole-2(4H)-yl)methyl) benzene Tert-butyl formate] | 0.589 µM |
| COC(=O)c1cccc(Cn2nc3c(c2-c2ccc(F)cc2F)CN(C)C3)c1 [Example 9, 3-((3-(2,4-Difluorophenyl)-5-methyl-5,6-dihydropyrrolo [3,4-c]pyrazole-2(4H)-yl) Methyl) methyl benzoate] | 0.0614 µM |
